Reference: paper PMC9960827, “Cloning and Characterization of Trypanosoma congolense and T. vivax Nucleoside Transporters Reveal the Potential of P1-Type Carriers for the Discovery of Broad-Spectrum Nucleoside-Based Therapeutics against Animal African Trypanosomiasis” (International Journal of Molecular Sciences, 2023)
Read-outs that look alike come from different tables or passages of the source.

Experiments:
T.b.b. B48 [1] = assay: Alamar Blue (resazurin) assay, T. b. brucei B48; type: cell-based, Trypanosoma brucei brucei
Summary of the method: (§1)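 Values are averages of no fewer than three independent experiments performed on different days, with EC50 derived in each case from a sigmoid dose-response equation with variable slope.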

T.b.b. B48 [2] = system: T.b.b. B48; parameters: method as in Hulpia et al. [38]; settings: compound marked *; ref Hulpia et al. [38]; cited from earlier work
T. congolense 6C3 [3] = system: T. congolense 6C3; parameters: method as in Hulpia et al. [38]; settings: values marked *; ref Hulpia et al. [38]; cited from earlier work
T. evansi = system: T. evansi; parameters: method as in Hulpia et al. [38]; settings: compound marked *; ref Hulpia et al. [38]; cited from earlier work
[4] = target: T. congolense adenosine transporter; assay: [3H]-adenosine uptake and its inhibition in T. congolense IL3000 bloodstream forms; type: cell-based, Trypanosoma congolense; settings: for Ki: 0.05 µM [3H]-adenosine, 30 s, IC50 converted to Ki, read-out: Ki on the transport of [3H]-adenosine
Summary of the method: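 Bloodstream-form T. congolense IL3000 (1 × 10^7 cells) in HEPES/bicarbonate buffer pH 7.3 took up [3H]-adenosine over a set interval, with or without inhibitor, ending by ice-cold unlabeled substrate stop or centrifugation through oil. Pellet radioactivity gave IC50 by sigmoid fit; Ki followed by Cheng–Prusoff using adenosine Km.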

L. mexicana SUPKO = assay: microbe, parasite or virus in culture; type: cell-based, Leishmania mexicana
Summary of the method: as §1

L. mexicana SUPKO+TvxNT3 = assay: microbe, parasite or virus in culture; type: cell-based, Leishmania mexicana; settings: read-out: SUPKO+TvxNT3 EC50
Summary of the method: as §1

L. mexicana SUPKO+TcoAT1 = assay: microbe, parasite or virus in culture; type: cell-based, Leishmania mexicana; settings: for EC50: read-out: SUPKO+TcoAT1 EC50
Summary of the method: as §1

T. congolense 6C3 [5] = assay: microbe, parasite or virus in culture; type: cell-based, Trypanosoma congolense
Summary of the method: as §1

T. vivax [6] = system: T. vivax; parameters: method as in Mabille et al. [69]; settings: added for comparison only; ref Mabille et al. [69]; cited from earlier work
T. vivax [7] = assay: T. vivax EC50 (from Mabille et al.); type: cell-based, Trypanosoma vivax; settings: from Table 8 data
T. congolense IL3000 [8] = assay: Alamar Blue (resazurin) assay, T. congolense IL3000; type: cell-based, Trypanosoma congolense
Summary of the method: as §1

T. b. brucei = settings: also CNS stage; oral and intraperitoneal administration; cited from earlier work
T. congolense IL3000 [9] = system: T. congolense IL3000; parameters: method as in Hulpia et al. [38]; settings: values marked *; ref Hulpia et al. [38]; cited from earlier work
TcoAT1 = type: cell-based, Trypanosoma congolense; settings: for Ki: 0.05 µM [3H]-adenosine, 10 s, IC50 converted to Ki, read-out: Ki on the transport of [3H]-adenosine; for ΔG0: Gibbs free energy of binding, from Km or Ki; for δ(ΔG0): loss of Gibbs free energy of binding relative to the parent nucleoside
Summary of the method: (§2)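 Transporter genes were expressed in an L. mexicana line lacking NT1 and NT2 (SUPKO), and 1 × 10^7 cells in HEPES/bicarbonate buffer pH 7.3 took up radiolabeled permeant through an oil layer, with or without inhibitor. Uptake was stopped with ice-cold unlabeled substrate or by centrifugation, and pellets were counted. IC50 against radiolabeled adenosine was converted to Ki by Cheng–Prusoff using the permeant Km.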

TvxNT3 = TvxNT3 (Trypanosoma vivax, UniProt F9WV62); assay: cell-based; type: cell-based; settings: for δ(ΔG0): difference in ΔG0 relative to the parent purine (adenosine or inosine)
Summary of the method: as §2

[10] = system: human embryonic kidney (HEK) cells; assay: Resazurin toxicity assay on human embryonic kidney cells; type: cell-based
Summary of the method: as §1

L. mexicana Cas9 = assay: Resazurin drug sensitivity assay, LmexCas9; type: cell-based, Leishmania mexicana; settings: read-out: LmexCas9 EC50
Summary of the method: as §1

T. equiperdum = system: T. equiperdum; parameters: method as in Hulpia et al. [38]; settings: compound marked *; ref Hulpia et al. [38]; cited from earlier work
T. brucei TbAT1-KO = settings: cited from earlier work
[11] = target: T. b. brucei P1 (TbP1/NT2); settings: cited from earlier work
T. brucei wild type = settings: cited from earlier work
[12] = system: T. congolense IL3000-based cell line expressing TbAT1; assay: Resazurin drug sensitivity assay, T. congolense IL3000 expressing TbAT1; parameters: species or system Trypanosoma congolense; settings: three independent clones, p < 0.0001
Description: EC50 values were determined by plotting to an equation for a sigmoid curve with variable slope (GraphPad Prism 8). All values were the average of at least three independent determinations on different days.

T. brucei cells = system: T. brucei cells; parameters: method as in PMID 30475806; settings: T. brucei cells treated with the drug; cited from earlier work

Chain of TvxNT3 (F9WV62 entry or part of it): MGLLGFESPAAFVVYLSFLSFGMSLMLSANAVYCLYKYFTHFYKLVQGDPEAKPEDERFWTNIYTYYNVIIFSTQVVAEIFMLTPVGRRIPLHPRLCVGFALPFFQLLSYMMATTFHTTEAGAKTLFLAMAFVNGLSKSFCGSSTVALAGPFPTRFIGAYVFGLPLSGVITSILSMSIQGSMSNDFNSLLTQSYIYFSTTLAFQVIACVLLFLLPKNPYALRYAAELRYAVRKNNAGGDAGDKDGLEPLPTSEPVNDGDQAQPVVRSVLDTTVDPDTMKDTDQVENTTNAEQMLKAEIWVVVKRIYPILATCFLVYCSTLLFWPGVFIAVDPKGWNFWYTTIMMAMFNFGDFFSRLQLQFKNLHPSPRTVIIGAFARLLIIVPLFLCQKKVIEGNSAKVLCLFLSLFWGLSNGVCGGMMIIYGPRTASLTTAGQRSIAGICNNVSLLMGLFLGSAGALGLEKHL

For `Nc1ncnc2c1ccn2C1OC(CO)CC1O` (stereo not shown) [FH7429_d, 3′-deoxytubercidin], the “fold more potent than tubercidin” value (T.b.b. B48 [1]; against T. b. brucei B48) is given as 17.2 fold, the EC50 (T.b.b. B48 [2]) is given as 0.25 ± 0.02 µM and the EC50 (T. congolense 6C3 [3]) is given as 0.019 ± 0.002 µM. The EC50 (T. evansi) was 0.017 ± 0.002 µM, the Ki [4] was 319 ± 93 µM and the “ΔG0, Gibbs free energy of interaction” value ([4]; calculated from Km or Ki) was -4.76 kcal/mol. For the same compound, the “SUPKO RF (Cas9)” value (L. mexicana SUPKO; Resistance Factor = EC50(SUPKO)/EC50(Cas9)) was greater than 6.63, the EC50 (L. mexicana SUPKO; resazurin, promastigotes, read-out: SUPKO EC50) was greater than 100 µM and the EC50 (L. mexicana SUPKO+TvxNT3; resazurin, promastigotes) was greater than 100 µM. For the same compound, the “SUPKO+TcoAT1 RF (SUPKO)” value (L. mexicana SUPKO+TcoAT1; Resistance Factor relative to SUPKO) was greater than 1.53, the EC50 (L. mexicana SUPKO+TcoAT1; resazurin, promastigotes) was 65.3 ± 7.6 µM and the “T. congolense 6C3 RF” value (T. congolense 6C3 [5]; resistance factor = EC50 (test strain)/EC50(control strain)) was 0.91. For the same compound, the EC50 (T. vivax [6]) was 3.48 ± 0.09 µM, the “fold higher EC50 against T. vivax compared to T. congolense” value (T. vivax [7]) was 10–165 fold and the “fold more potent than tubercidin” value (T. congolense IL3000 [8]; against T. congolense) was 150 fold. The “outcome in T. b. brucei mouse model” value (T. b. brucei) was “curative”, the EC50 (T. congolense IL3000 [9]) was 0.021 ± 0.001 µM and the Ki (TcoAT1) was 810 ± 60 µM. It also gave a ΔG0 (TcoAT1) of -4.3 kcal/mol, a Ki (TvxNT3; 50 nM [3H]-adenosine, 90 s, IC50 converted to Ki, read-out: Ki on the transport of [3H]-adenosine) of 388 ± 13 µM and a ΔG0 (TvxNT3; Gibbs free energy of interaction, from Km or Ki) of -4.66 kcal/mol. For the same compound, the EC50 ([10]; resazurin, 96 well plates, read-out: HEK EC50) was greater than 200 µM, the “SI T. equiperdum” value ([10]; selectivity index = EC50 (HEK cells)/EC50 (T. equiperdum)) was >76,000 and the “SI T. evansi” value ([10]; selectivity index = EC50 (HEK cells)/EC50 (T. evansi)) was >11,800. For the same compound, the EC50 (L. mexicana Cas9; resazurin, promastigotes) was 15.1 ± 1.7 µM and the EC50 (T. equiperdum) was 0.0026 ± 0.0006 µM.

In the case of `Nc1ncnc2c1ccn2[C@@H]1O[C@H](CO)[C@@H](O)[C@H]1O` [Tubercidin, 7-deazaadenosine], the EC50 (T.b.b. B48 [1]; Trypanosoma brucei, read-out: T.b.b. B48 EC50) is listed as 4.3 ± 1.3 µM, the EC50 (T. brucei TbAT1-KO) is listed as 4.3 ± 1.3 µM and the Ki ([11]; T. b. brucei bloodstream forms, read-out: Tbb P1 Ki) is listed as 78 ± 6.4 µM. The “Tbb P1 ΔG0” value [11] was -5.59 kcal/mol, the Ki [4] was 403 ± 120 µM and the EC50 (L. mexicana SUPKO; Leishmania mexicana, read-out: SUPKO EC50, resazurin, promastigotes) was greater than 100 µM. The EC50 (L. mexicana SUPKO+TvxNT3; Leishmania mexicana) was greater than 100 µM, the EC50 (L. mexicana SUPKO+TcoAT1; Leishmania mexicana) was greater than 100 µM and the EC50 (T. congolense 6C3 [5]; Trypanosoma congolense, diminazene resistant strain, resazurin, read-out: T. congolense 6C3 EC50) was 1.83 ± 0.39 µM. It also gave an EC50 (T. congolense IL3000 [8]; Trypanosoma congolense, read-out: T. congolense IL3000 EC50) of 3.16 ± 0.5 µM, a Ki (TcoAT1) of 754 ± 54.3 µM and a ΔG0 (TcoAT1) of -4.25 kcal/mol. The “δ(ΔG0)” value (TcoAT1) was 4.441 kcal/mol, the “δ(ΔG0)” value (TcoAT1; listed as tubercidin) was 4.45 kcal/mol and the EC50 (T. brucei wild type) was 0.15 ± 0.03 µM. The “δ(ΔG0)” value (TvxNT3) was -3.148 kcal/mol, the “δ(ΔG0)” value (TvxNT3; listed as tubercidin) was 3.15 kcal/mol and the “effect of TbAT1 expression on sensitivity” value [12] was “highly significant sensitization”. For the same compound, the EC50 (L. mexicana Cas9; Leishmania mexicana) was 0.44 ± 0.06 µM.

For `Nc1nc(N)nc(Nc2ccc([As]3SCC(CO)S3)cc2)n1` (stereo not shown) [melarsoprol], the “cells bearing conjoined nuclei and double kinetoplasts” value (T. brucei cells) is given as greater than 10%.
